The text below walks through data of US20230126391A1, “ALPHA-METHYL-SUBSTITUTED DIAZABICYCLO[4.3.1] DECANE DERIVATIVES FOR TREATMENT OF PSYCHIATRIC DISORDERS” (priority 2020, published 2023).

One test deals with FKBP12 (Homo sapiens, UniProt P62942). Description: FP assay, binding to human FKBPs (Table 1). Particulars: fluorescence polarization assay.
A further test addresses FKBP12.6 (Homo sapiens, UniProt P68106). The test can be described thus: FP assay, binding to human FKBPs (Table 1). Particulars: fluorescence polarization assay.
For a further test, the target named is T1, FKBP51 (Homo sapiens, UniProt Q13451).
T1 sequence (Q13451 1-457): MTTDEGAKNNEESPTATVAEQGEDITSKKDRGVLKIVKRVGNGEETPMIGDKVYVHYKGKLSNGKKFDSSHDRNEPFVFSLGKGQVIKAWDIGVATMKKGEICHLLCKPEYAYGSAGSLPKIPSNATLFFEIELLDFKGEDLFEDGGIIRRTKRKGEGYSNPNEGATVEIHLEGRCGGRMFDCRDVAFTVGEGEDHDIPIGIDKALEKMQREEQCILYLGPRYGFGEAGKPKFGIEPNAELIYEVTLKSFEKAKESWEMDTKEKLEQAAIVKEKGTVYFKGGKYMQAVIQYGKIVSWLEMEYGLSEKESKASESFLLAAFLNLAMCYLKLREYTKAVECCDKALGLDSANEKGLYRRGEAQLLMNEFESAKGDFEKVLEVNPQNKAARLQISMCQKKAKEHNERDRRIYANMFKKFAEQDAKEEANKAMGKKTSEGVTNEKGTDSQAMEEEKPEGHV
Description: FP assay, binding to human FKBPs (Table 1). Particulars: fluorescence polarization assay.

A further test addresses T2, FKBP52 (Homo sapiens, UniProt Q02790).
T2 sequence (Q02790 1-459): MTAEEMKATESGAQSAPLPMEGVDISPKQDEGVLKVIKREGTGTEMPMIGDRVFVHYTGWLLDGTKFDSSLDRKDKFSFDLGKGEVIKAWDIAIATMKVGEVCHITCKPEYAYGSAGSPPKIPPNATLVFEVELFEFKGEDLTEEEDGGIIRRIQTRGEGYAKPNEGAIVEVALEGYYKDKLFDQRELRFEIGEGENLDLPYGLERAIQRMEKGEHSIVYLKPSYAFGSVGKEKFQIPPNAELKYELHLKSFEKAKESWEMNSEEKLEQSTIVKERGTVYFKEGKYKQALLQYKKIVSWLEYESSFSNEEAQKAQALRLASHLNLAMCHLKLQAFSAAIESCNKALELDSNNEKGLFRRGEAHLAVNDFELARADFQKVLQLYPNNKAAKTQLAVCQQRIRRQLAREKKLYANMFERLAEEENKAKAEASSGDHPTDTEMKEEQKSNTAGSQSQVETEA
The test can be described thus: FP assay, binding to human FKBPs (Table 1). To be noted: fluorescence polarization assay.

In another test the target is LpMip (Legionella pneumophila subsp. pneumophila, UniProt Q5ZXE0). The test can be described thus: biochemical. Format: binding.
Sequence of LpMip (Q5ZXE0 21-233 limits assumed): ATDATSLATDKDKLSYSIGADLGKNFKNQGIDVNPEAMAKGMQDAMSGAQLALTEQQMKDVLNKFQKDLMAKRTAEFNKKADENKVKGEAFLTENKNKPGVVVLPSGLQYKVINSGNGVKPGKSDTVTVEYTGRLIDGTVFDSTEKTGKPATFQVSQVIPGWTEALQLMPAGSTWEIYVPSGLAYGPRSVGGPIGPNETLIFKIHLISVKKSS

Like-named read-outs stand apart in the source and are kept apart here.

Sequence of FKBP12.6 (P68106 whole entry): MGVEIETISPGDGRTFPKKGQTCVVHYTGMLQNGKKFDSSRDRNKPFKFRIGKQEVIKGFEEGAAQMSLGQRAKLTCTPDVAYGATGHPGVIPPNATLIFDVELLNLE
Sequence of FKBP12 (P62942 whole entry): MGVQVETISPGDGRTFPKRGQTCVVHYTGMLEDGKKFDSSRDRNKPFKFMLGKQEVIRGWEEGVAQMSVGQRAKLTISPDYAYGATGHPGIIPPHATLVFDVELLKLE

As to `C=C[C@H]1CN(Cc2ccccn2)C(=O)[C@@H]2CCC[C@H]1N2S(=O)(=O)c1cc(Cl)cc(Cl)c1` [6a], the Ki turned out to be 1.3 nM at FKBP12; 17 nM at FKBP12.6; 119 nM on FKBP51; 54 nM at FKBP52; 1350 nM on LpMip (read-out: Ki LpMip).
As to `C=C[C@H]1CN([C@@H](C)c2ccccn2)C(=O)[C@@H]2CCC[C@H]1N2S(=O)(=O)c1cc(Cl)cc(Cl)c1` [6d, (1S,5S,6R)-10-((3,5-dichlorophenyl)sulfonyl)-3-((S)-1-(pyridin-2-yl)ethyl)-5-vinyl-3,10-diazabicyclo[4.3.1]decan-2-one], the Ki was found to be 0.15 nM at FKBP12; 0.41 nM at FKBP12.6; 2.6 nM at FKBP51; 2.2 nM at FKBP52; 171 nM on LpMip.
Take `C=C[C@H]1CN([C@H](C)c2ccccn2)C(=O)[C@@H]2CCC[C@H]1N2S(=O)(=O)c1cc(Cl)cc(Cl)c1` [6e]: the Ki was 130 nM on FKBP12, 812 nM at FKBP12.6, more than 1000 nM at FKBP51 and more than 1000 nM on FKBP52.
Regarding `C=C[C@H]1CN(Cc2ccccn2)C(=O)[C@@H]2CCC[C@H]1N2S(=O)(=O)c1ccc2ncsc2c1` [7a], the Ki on FKBP12 worked out at 7.5 nM; at FKBP12.6, 6 nM; at FKBP51, 294 nM; at FKBP52, 276 nM; on LpMip (read-out: Ki LpMip), 5840 nM.
With `C=C[C@H]1CN([C@@H](C)c2ccccn2)C(=O)[C@@H]2CCC[C@H]1N2S(=O)(=O)c1ccc2ncsc2c1` [7d, (1S,5S,6R)-10-(benzo[d]thiazol-6-ylsulfonyl)-3-((S)-1-(pyridin-2-yl)ethyl)-5-vinyl-3,10-diazabicyclo[4.3.1]decan-2-one], the Ki on FKBP12 worked out at 2.2 nM; on FKBP12.6 it was 0.9 nM; on FKBP51 it was 33 nM; on FKBP52, 29 nM; at LpMip, 366 nM.
In the case of `C=C[C@H]1CN([C@H](C)c2ccccn2)C(=O)[C@@H]2CCC[C@H]1N2S(=O)(=O)c1ccc2ncsc2c1` [7e], the Ki at FKBP12 was 240 nM; at FKBP12.6, 157 nM; on FKBP51, 4550 nM; at FKBP52 it was 3450 nM.
On to `C=C[C@H]1CN([C@@H](C)COCc2ccccc2)C(=O)[C@@H]2CCC[C@H]1N2S(=O)(=O)c1cc(Cl)cc(Cl)c1` [15a, (1S,5S,6R)-3-((S)-1-(benzyloxy)propan-2-yl)-10-((3,5-dichlorophenyl)sulfonyl)-5-vinyl-3,10-diazabicyclo[4.3.1]decan-2-one], for which the Ki on FKBP12 came to 58 nM; at FKBP51 it was 1080 nM; at FKBP52, 1030 nM.
In the same order, the values of `C=C[C@H]1CN([C@H](C)COCc2ccccc2)C(=O)[C@@H]2CCC[C@H]1N2S(=O)(=O)c1cc(Cl)cc(Cl)c1` [15b] are more than 5000 nM, more than 5000 nM and more than 5000 nM.
As for `C=C[C@H]1CN([C@@H](C)COCc2ccccc2)C(=O)[C@@H]2CCC[C@H]1N2S(=O)(=O)c1ccc2ncsc2c1` [16a, (1S,5S,6R)-10-(benzo[d]thiazol-6-ylsulfonyl)-3-((S)-1-(benzyloxy)propan-2-yl)-5-vinyl-3,10-diazabicyclo[4.3.1]decan-2-one], the inhibitory constant (Ki) came to 28 nM on FKBP12, 263 nM on FKBP51 and 316 nM at FKBP52.
As for `C=C[C@H]1CN([C@H](C)COCc2ccccc2)C(=O)[C@@H]2CCC[C@H]1N2S(=O)(=O)c1ccc2ncsc2c1` [16b], the inhibition constant Ki on FKBP12, on FKBP51 and on FKBP52 was more than 5000 nM each time.
As to `C=C[C@H]1CN([C@@H](C)CO)C(=O)[C@@H]2CCC[C@H]1N2S(=O)(=O)c1ccc2ncsc2c1` [17a, (1S,5S,6R)-10-(benzo[d]thiazol-6-ylsulfonyl)-3-((S)-1-hydroxypropan-2-yl)-5-vinyl-3,10-diazabicyclo[4.3.1]decan-2-one], the Ki came to 21 nM at FKBP12, 110 nM on FKBP51 and 102 nM at FKBP52.
In the case of `C=C[C@H]1CN([C@H](C)CO)C(=O)[C@@H]2CCC[C@H]1N2S(=O)(=O)c1ccc2ncsc2c1` [17b], the Ki at FKBP12, on FKBP51 and on FKBP52 was more than 5000 nM in each case.
For `C=C[C@H]1CN(Cc2cn(-c3ccc(OC)cc3)nn2)C(=O)[C@@H]2CCC[C@H]1N2S(=O)(=O)c1cc(Cl)cc(Cl)c1` [19a], the Ki amounted to 15 nM on FKBP12, 16 nM at FKBP12.6 and 361 nM at FKBP52.
`C=C[C@H]1CN([C@@H](C)c2cn(-c3ccc(OC)cc3)nn2)C(=O)[C@@H]2CCC[C@H]1N2S(=O)(=O)c1cc(Cl)cc(Cl)c1` [19b, (1S,5S,6R)-10-((3,5-dichlorophenyl)sulfonyl)-3-((S)-1-(1-(4-methoxyphenyl)-1H-1,2,3-triazol-4-yl)ethyl)-5-vinyl-3,10-diazabicyclo[4.3.1]decan-2-one]: the inhibition constant Ki on FKBP12 worked out at 4.3 nM; at FKBP12.6 it was 16 nM; at FKBP52 it was 91 nM.
Consider `C=C[C@H]1CN([C@H](C)c2cn(-c3ccc(OC)cc3)nn2)C(=O)[C@@H]2CCC[C@H]1N2S(=O)(=O)c1cc(Cl)cc(Cl)c1` [19c], for which the Ki at FKBP12 was determined as 233 nM; at FKBP12.6, 390 nM; on FKBP52, 1030 nM.
Turning to `C=C[C@H]1CN(CCO)C(=O)[C@@H]2CCC[C@H]1N2S(=O)(=O)c1cc(Cl)cc(Cl)c1` [20a], the Ki on FKBP12 was determined as 20 nM; on FKBP51 it was 403 nM; at FKBP52, 387 nM.
In the same order, the values of `C=C[C@H]1CN([C@@H](C)CO)C(=O)[C@@H]2CCC[C@H]1N2S(=O)(=O)c1cc(Cl)cc(Cl)c1` [20b, (1S,5S,6R)-10-((3,5-dichlorophenyl)sulfonyl)-3-((S)-1-hydroxypropan-2-yl)-5-vinyl-3,10-diazabicyclo[4.3.1]decan-2-one] are 3.5 nM, 107 nM and 116 nM.
As for `C=C[C@H]1CN([C@H](C)CO)C(=O)[C@@H]2CCC[C@H]1N2S(=O)(=O)c1cc(Cl)cc(Cl)c1` [20c], the inhibition constant (Ki) at FKBP12, at FKBP51 and at FKBP52 was more than 5000 nM throughout.
For `C=C[C@H]1CN(CC(=O)O)C(=O)[C@@H]2CCC[C@H]1N2S(=O)(=O)c1cc(Cl)cc(Cl)c1` [21a], the inhibitory constant (Ki) is 33.4 nM at FKBP12, 172 nM at FKBP51, 320 nM at FKBP52 and 5150 nM on LpMip (read-out: Ki LpMip).
With `C=C[C@H]1CN([C@@H](C)C(=O)O)C(=O)[C@@H]2CCC[C@H]1N2S(=O)(=O)c1cc(Cl)cc(Cl)c1` [21b, (2S)-2-((1S,5S,6R)-10-((3,5-dichlorophenyl)sulfonyl)-2-oxo-5-vinyl-3,10-diazabicyclo[4.3.1]decan-3-yl)propanoic acid], the inhibitory constant (Ki) is 13 nM at FKBP12, 22 nM on FKBP51, 80 nM on FKBP52 and 284 nM on LpMip.
Regarding `C=C[C@H]1CN([C@H](C)C(=O)O)C(=O)[C@@H]2CCC[C@H]1N2S(=O)(=O)c1cc(Cl)cc(Cl)c1` [21c], the results for the inhibition constant (Ki) on FKBP12, on FKBP51 and at FKBP52 were 48 nM, 123 nM and 296 nM, respectively.
In the same order, the values of `C=C[C@H]1CN(CCOC)C(=O)[C@@H]2CCC[C@H]1N2S(=O)(=O)c1cc(Cl)cc(Cl)c1` [22a] are 59 nM, 529 nM and 377 nM.
For `C=C[C@H]1CN([C@@H](C)COC)C(=O)[C@@H]2CCC[C@H]1N2S(=O)(=O)c1cc(Cl)cc(Cl)c1` [22b, (1S,5S,6R)-10-((3,5-dichlorophenyl)sulfonyl)-3-((S)-1-methoxypropan-2-yl)-5-vinyl-3,10-diazabicyclo[4.3.1]decan-2-one], in that order: 14 nM, 204 nM and 205 nM.
For `C=C[C@H]1CN([C@H](C)COC)C(=O)[C@@H]2CCC[C@H]1N2S(=O)(=O)c1cc(Cl)cc(Cl)c1` [22c], in that order: more than 5000 nM, more than 5000 nM and more than 5000 nM.
With `O=C1[C@@H]2CCC[C@H]([C@@H](CO)CN1Cc1ccccn1)N2S(=O)(=O)c1cc(Cl)cc(Cl)c1` [23a], the inhibition constant (Ki) at FKBP12 worked out at 0.35 nM; on FKBP12.6, 3.4 nM; at FKBP51, 33 nM; at FKBP52 it was 19 nM; at LpMip (read-out: Ki LpMip) it was 467 nM.
With `C[C@@H](c1ccccn1)N1C[C@H](CO)[C@H]2CCC[C@@H](C1=O)N2S(=O)(=O)c1ccc2ncsc2c1` [25b, (1S,5S,6R)-10-(benzo[d]thiazol-6-ylsulfonyl)-5-(hydroxymethyl)-3-((S)-1-(pyridin-2-yl)ethyl)-3,10-diazabicyclo[4.3.1]decan-2-one], the Ki at FKBP12 is 1.5 nM; on FKBP12.6 it was 0.7 nM; on LpMip, 237 nM.
